Structures can show the parent of a compound that is named as a salt.
Assay: Long-term stability study (25° C., RH 60%)
Type: physicochemical
Settings: for Related substance Impurity 5 / Related substance Impurity 6 / Related substance Maximum single impurity / Related substance Impurity 1 / Related substance Impurity 2 / Related substance Impurity 3 / Related substance Total impurity / Related substance Impurity 4 / Crystalline form: 25° C./RH 60%; for Related substance Impurity 5 / Related substance Impurity 6: limit 0.10%; for Related substance Maximum single impurity: limit 0.15%; for Related substance Impurity 1 / Related substance Impurity 2 / Related substance Impurity 3: limit 0.17%; for Related substance Total impurity: limit 1.0%; for Related substance Impurity 4: limit 3.0%; for Crystalline form: limit ModI
Description: Long-term stability over twelve months was evaluated at 25° C. and a relative humidity of 60%; or accelerated stability over six months was evaluated at 40° C. and a relative humidity of 75%.

CNC(=O)c1cc(OCc2nnc(Nc3ccc(Cl)cc3)c3ccoc23)ccn1 [EOC315 crystalline form Mod. I, 4-(4-chloroanilino)-7-(2-methylaminocarbonyl-4-oxymethyl)pyridylfuro[2,3-d]pyridazine mesylate]
Related substance Impurity 5 (Month 0, listed as 151211): 0.02% | Related substance Impurity 6 (Month 0, listed as 151211): 0.01% | Related substance Impurity 5 (Month 0, listed as 151212): 0.01% | Related substance Impurity 6 (Month 0, listed as 151212): Undetected | Related substance Impurity 5 (Month 0, listed as 151213): Undetected | Related substance Impurity 6 (Month 0, listed as 151213): Undetected | Related substance Maximum single impurity (Month 0, listed as 151211): 0.0079% | Related substance Maximum single impurity (Month 0, listed as 151212): 0.012% | Related substance Maximum single impurity (Month 0, listed as 151213): 0.0085% | Related substance Impurity 1 (Month 0): Undetected | Related substance Impurity 2 (Month 0): Undetected | Related substance Impurity 3 (Month 0, listed as 151211): 0.016% | Related substance Impurity 3 (Month 0, listed as 151212): 0.011% | Related substance Impurity 3 (Month 0, listed as 151213): 0.011% | Related substance Total impurity (Month 0, listed as 151211): 0.53% | Related substance Total impurity (Month 0, listed as 151212): 0.65% | Related substance Total impurity (Month 0, listed as 151213): 0.52% | Related substance Impurity 4 (Month 0, listed as 151211): 0.36% | Related substance Impurity 4 (Month 0, listed as 151212): 0.46% | Related substance Impurity 4 (Month 0, listed as 151213): 0.35% | Crystalline form (Month 0): ModI | Related substance Impurity 6 (Month 3): Undetected | Related substance Impurity 5 (Month 3, listed as 151211): 0.01% | Related substance Impurity 5 (Month 3, listed as 151212): 0.02% | Related substance Impurity 5 (Month 3, listed as 151213): 0.01% | Related substance Maximum single impurity (Month 3): Undetected | Related substance Impurity 1 (Month 3): Undetected | Related substance Impurity 2 (Month 3): Undetected | Related substance Impurity 3 (Month 3): Undetected | Related substance Total impurity (Month 3, listed as 151211): 0.5% | Related substance Total impurity (Month 3, listed as 151212): 0.6% | Related substance Total impurity (Month 3, listed as 151213): 0.5% | Related substance Impurity 4 (Month 3, listed as 151211): 0.4% | Related substance Impurity 4 (Month 3, listed as 151212): 0.5% | Related substance Impurity 4 (Month 3, listed as 151213): 0.38% | Related substance Impurity 6 (Month 6): 0.01% | Related substance Impurity 5 (Month 6, listed as 151211): Undetected | Related substance Impurity 5 (Month 6, listed as 151212): 0.02% | Related substance Impurity 5 (Month 6, listed as 151213): Undetected | Related substance Maximum single impurity (Month 6, listed as 151211): 0.013% | Related substance Maximum single impurity (Month 6, listed as 151212): 0.070% | Related substance Maximum single impurity (Month 6, listed as 151213): 0.016% | Related substance Impurity 1 (Month 6): Undetected | Related substance Impurity 2 (Month 6, listed as 151211): 0.0028% | Related substance Impurity 3 (Month 6, listed as 151211): 0.099% | Related substance Impurity 2 (Month 6, listed as 151212): Undetected | Related substance Impurity 3 (Month 6, listed as 151212): 0.031% | Related substance Impurity 2 (Month 6, listed as 151213): Undetected | Related substance Impurity 3 (Month 6, listed as 151213): 0.033% | Related substance Total impurity (Month 6, listed as 151211): 0.73% | Related substance Total impurity (Month 6, listed as 151212): 0.88% | Related substance Total impurity (Month 6, listed as 151213): 0.63% | Related substance Impurity 4 (Month 6, listed as 151211): 0.42% | Related substance Impurity 4 (Month 6, listed as 151212): 0.54% | Related substance Impurity 4 (Month 6, listed as 151213): 0.40% | Crystalline form (Month 6): ModI | Related substance Impurity 5 (Month 9, listed as 151211): 0.02% | Related substance Impurity 6 (Month 9, listed as 151211): Undetected | Related substance Impurity 5 (Month 9, listed as 151212): 0.01% | Related substance Impurity 6 (Month 9, listed as 151212): 0.01% | Related substance Impurity 5 (Month 9, listed as 151213): Undetected | Related substance Impurity 6 (Month 9, listed as 151213): Undetected | Related substance Maximum single impurity (Month 9, listed as 151211): 0.013% | Related substance Maximum single impurity (Month 9, listed as 151212): Undetected | Related substance Maximum single impurity (Month 9, listed as 151213): Undetected | Related substance Impurity 1 (Month 9): Undetected | Related substance Impurity 2 (Month 9): Undetected | Related substance Impurity 3 (Month 9): Undetected | Related substance Total impurity (Month 9, listed as 151211): 0.61% | Related substance Total impurity (Month 9, listed as 151212): 0.77% | Related substance Total impurity (Month 9, listed as 151213): 0.58% | Related substance Impurity 4 (Month 9, listed as 151211): 0.43% | Related substance Impurity 4 (Month 9, listed as 151212): 0.56% | Related substance Impurity 4 (Month 9, listed as 151213): 0.42% | Related substance Impurity 5 (Month 12, listed as 151211): 0.01% | Related substance Impurity 6 (Month 12, listed as 151211): 0.03% | Related substance Impurity 5 (Month 12, listed as 151212): Undetected | Related substance Impurity 6 (Month 12, listed as 151212): 0.02% | Related substance Impurity 5 (Month 12, listed as 151213): 0.01% | Related substance Impurity 6 (Month 12, listed as 151213): Undetected | Related substance Maximum single impurity (Month 12): Undetected | Related substance Impurity 1 (Month 12): Undetected | Related substance Impurity 2 (Month 12): Undetected | Related substance Impurity 3 (Month 12): Undetected | Related substance Total impurity (Month 12, listed as 151211): 0.63% | Related substance Total impurity (Month 12, listed as 151212): 0.80% | Related substance Total impurity (Month 12, listed as 151213): 0.58% | Related substance Impurity 4 (Month 12, listed as 151211): 0.46% | Related substance Impurity 4 (Month 12, listed as 151212): 0.58% | Related substance Impurity 4 (Month 12, listed as 151213): 0.42% | Crystalline form (Month 12): ModI | stability of the crystalline form (conclusion from tables 4 and 5) (long-term and accelerated stability): thermodynamically stable form
